According to publication PMC4286326 (Journal of the American Chemical Society, 2014):
Where two headings read alike, the source gives them in different places.

Assays:
[1] = system: WT M2-expressing A/Udorn/72; assay: microbe, parasite or virus in culture; type: cell-based; details: Influenza A virus, MDCK, read-out: A/Udorn/72 (S31) EC50
[2] = in vitro; details: dog
[3] = target: WT M2 (A/M2) (Influenza A virus, UniProt P0DOF5); assay: biochemical
Sequence of WT M2 (A/M2) (P0DOF5 whole entry, looked up): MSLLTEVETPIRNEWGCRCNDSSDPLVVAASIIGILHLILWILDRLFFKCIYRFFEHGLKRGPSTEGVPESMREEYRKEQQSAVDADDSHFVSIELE

| Structure (SMILES) | EC50 [1] | CC50 [2] | inhibition at 100 µM ([3]; read-out: % WT inhibition) | inhibition at 100 µM ([3]; read-out: % WT(S31) inhibition) |
| --- | --- | --- | --- | --- |
| NC12CC3CC(CC(C3)C1)C2 [Compound 1, amantadine, reference compound] | 0.3 µM | > 300 µM | – | – |
| Brc1ccc(CNC23CC4CC(CC(C4)C2)C3)s1 [Compound 11, N-[(5-bromothiophen-2-yl)methyl]adamantan-1-amine] | 4.6 µM | 123 µM | 77% | 77% |
